Experimental data published in US20100029604A1, “ANTIBACTERIAL COMBINATION AND ITS USE” (priority 2007, published 2010).
≈ marks a conversion by molar mass, not a printed value. Read-outs that look alike come from different tables or passages of the source.

Experiments:
[1] = test system: Escherichia coli TEM-1; assay type: cell-based
Protocol: (§1) The MIC experiments were performed in duplicate in 96-well microtiter plates using CAMHB. Serial twofold dilutions of each antibiotic either alone or in combination with constant concentration ratio of a β-lactamase inhibitor (2:1) were prepared in CAMHB. The bacterial suspension with final inoculum 10^5 CFU/mL was transferred to the test medium containing the antibacterial substances. In each well of a 96-well microtiter plate was combined 50 μL of bacterial inoculum, 50 μL of antibiotic dilutions (or media for determination of the MIC of the antibiotic in the absence of test compound). Each plate included 4 wells with no bacterial inoculum (negative control) and 4 wells with no test compound and no antibiotic (positive control). The plates were incubated at 35° C. for 24 h. Purity check and colony counts on each inoculum suspension was performed to ensure that the final inoculum concentration routinely obtained closely approximates 5×10^5 CFU/mL. In addition the assay is routinely monitored by testing standard antibiotics and ensuring that MIC values are within the recommended ranges for the respective strains.
(§2) This test permits comparisons to be made between bacterial growth in the presence of antibiotic alone and bacterial growth in the presence of both an antibiotic and a novel (test) compound.

[2] = test system: K. pneumoniae SHV-18; experiment: Synergy MIC, inhibitor at 4 μg/mL (Example 4); assay type: cell-based; details: SHV-18, class A, inhibitor constant 4 μg/mL
[3] = test system: E. coli TEM-2; assay type: cell-based; details: TEM-2, class A, inhibitor constant 4 μg/mL
[4] = test system: E. cloacae AmpC; experiment: Synergy MIC, inhibitor at 4 μg/mL (Example 4); assay type: cell-based, Enterobacter Cloacae; details: class C, inhibitor constant 4 μg/mL
Protocol: (§3) The in vitro activities of the antibiotics were determined by the broth microdilution method and agar dilution technique as recommended by CLSI guidelines. The MIC experiments were performed in duplicate in 96-well microtiter plates using MHB. Serial twofold dilutions of each antibiotic either alone or in combination with a constant amount (4 μg/mL) of a β-lactamase inhibitor were prepared in MHBII broth. A sterile pipette tip was used to mix the contents of each well (one tip was used going from the low to the high concentration in the same column). The bacterial suspension with final inoculum 10^5 CFU/mL was transferred to the test medium containing the antibacterial substances by a multipoint inoculator (Dynatech, Chantilly, Va., USA). The plates were then incubated at 35° C. for 24 h.
(§4) Following procedures identical to those described in Example 3, representative compound of Formula (I) was tested for its ability to enhance antibiotic efficacy against Class C β-lactamase positive bacterial strains that are highly resistant to β-lactam antibiotics. Class C enzymes included AmpC β-lactamases of Enterobacter Cloacae and Citrobacter freundii.

[5] = test system: C. freundii AmpC; experiment: Synergy MIC, inhibitor at 4 μg/mL (Example 4); assay type: cell-based, Citrobacter freundii; details: class C, inhibitor constant 4 μg/mL
Protocol: as §3, §4

[6] = test system: Escherichia coli TEM-35; experiment: MIC, characterised β-lactamase producing strain (Example 5, Tables 5-7); assay type: cell-based
Protocol: as §1, §2

[7] = test system: Escherichia coli OXA-5; experiment: as above; assay type: cell-based
Protocol: as §1, §2

[8] = test system: Escherichia coli TEM-50; experiment: as above; assay type: cell-based
Protocol: as §1, with “Serial twofold dilutions of each antibiotic either alone or in combination with constant concentration ratio of a β-lactamase inhibitor (2:1) were prepared in CAMHB.” left out
as §2

[9] = test system: Escherichia coli SHV-2; experiment: as above; assay type: cell-based
Protocol: as §1, with “Serial twofold dilutions of each antibiotic either alone or in combination with constant concentration ratio of a β-lactamase inhibitor (2:1) were prepared in CAMHB.” left out
as §2

[10] = test system: Klebsiella pneumoniae TEM-31; experiment: as above; assay type: cell-based
Protocol: as §1, with “Serial twofold dilutions of each antibiotic either alone or in combination with constant concentration ratio of a β-lactamase inhibitor (2:1) were prepared in CAMHB.” left out
as §2

[11] = test system: Escherichia coli TEM-7; experiment: as above; assay type: cell-based
Protocol: as §1, with “Serial twofold dilutions of each antibiotic either alone or in combination with constant concentration ratio of a β-lactamase inhibitor (2:1) were prepared in CAMHB.” left out
as §2

[12] = test system: Klebsiella pneumoniae TEM-1, SHV; experiment: as above; assay type: cell-based
Protocol: as §1, with “Serial twofold dilutions of each antibiotic either alone or in combination with constant concentration ratio of a β-lactamase inhibitor (2:1) were prepared in CAMHB.” left out
as §2

[13] = test system: Escherichia coli TEM-5; experiment: as above; assay type: cell-based
Protocol: as §1, with “Serial twofold dilutions of each antibiotic either alone or in combination with constant concentration ratio of a β-lactamase inhibitor (2:1) were prepared in CAMHB.” left out
as §2

[14] = test system: Escherichia coli TEM-6; experiment: as above; assay type: cell-based
Protocol: as §1, with “Serial twofold dilutions of each antibiotic either alone or in combination with constant concentration ratio of a β-lactamase inhibitor (2:1) were prepared in CAMHB.” left out
as §2

[15] = test system: Pseudomonas aeruginosa PSE-1; experiment: as above; assay type: cell-based
Protocol: as §1, with “Serial twofold dilutions of each antibiotic either alone or in combination with constant concentration ratio of a β-lactamase inhibitor (2:1) were prepared in CAMHB.” left out
as §2

[16] = test system: Pseudomonas aeruginosa LCR-1; experiment: as above; assay type: cell-based
Protocol: as §1, with “Serial twofold dilutions of each antibiotic either alone or in combination with constant concentration ratio of a β-lactamase inhibitor (2:1) were prepared in CAMHB.” left out
as §2

[17] = test system: Proteus mirabilis TEM-52; experiment: as above; assay type: cell-based
Protocol: as §1, with “Serial twofold dilutions of each antibiotic either alone or in combination with constant concentration ratio of a β-lactamase inhibitor (2:1) were prepared in CAMHB.” left out
as §2

[18] = test system: Escherichia coli TEM-20; experiment: as above; assay type: cell-based
Protocol: as §1, with “Serial twofold dilutions of each antibiotic either alone or in combination with constant concentration ratio of a β-lactamase inhibitor (2:1) were prepared in CAMHB.” left out
as §2

[19] = test system: Klebsiella pneumoniae LAT-1; experiment: as above; assay type: cell-based
Protocol: as §1, with “Serial twofold dilutions of each antibiotic either alone or in combination with constant concentration ratio of a β-lactamase inhibitor (2:1) were prepared in CAMHB.” left out
as §2

[20] = test system: Pseudomonas aeruginosa OXA-10; experiment: as above; assay type: cell-based
Protocol: as §1, with “Serial twofold dilutions of each antibiotic either alone or in combination with constant concentration ratio of a β-lactamase inhibitor (2:1) were prepared in CAMHB.” left out
as §2

Compound: CO/N=C(\C(=O)N[C@@H]1C(=O)N2C(C(=O)O)=C(COC(C)=O)CS[C@H]12)c1csc(N)n1 [cefotaxime]
- MIC ([1]; Table 6, Escherichia coli TEM-1, LK-157 at constant 4 μg/mL in combination): 0.063 µg/mL
- MIC [2]: 3.2 µg/mL
- MIC [3]: 0.1 µg/mL (≈ 0.22 µM)
- MIC ([4]; first listed): > 25.6 µg/mL
- MIC ([4]; second listed): > 25.6 µg/mL
- MIC ([4]; third listed): > 25.6 µg/mL
- MIC [5]: > 25.6 µg/mL
- MIC ([6]; Table 6, Escherichia coli TEM-35, LK-157 at constant 4 μg/mL in combination): 0.031 µg/mL
- MIC ([7]; Table 6, Escherichia coli OXA-5, LK-157 at constant 4 μg/mL in combination): 0.25 µg/mL
- MIC ([8]; Table 6, Escherichia coli TEM-50, LK-157 at constant 4 μg/mL in combination): 8 µg/mL
- MIC ([9]; Table 6, Escherichia coli SHV-2, LK-157 at constant 4 μg/mL in combination): 4 µg/mL
- MIC ([10]; Table 6, Klebsiella pneumoniae TEM-31, LK-157 at constant 4 μg/mL in combination): 0.063 µg/mL
- MIC ([11]; Table 6, Escherichia coli TEM-7, LK-157 at constant 4 μg/mL in combination): 0.25 µg/mL
- MIC ([12]; Table 6, LK-157 at constant 4 μg/mL in combination): 4 µg/mL
- MIC ([13]; Table 6, Escherichia coli TEM-5, LK-157 at constant 4 μg/mL in combination): 0.063 µg/mL
- MIC ([14]; Table 6, Escherichia coli TEM-6, LK-157 at constant 4 μg/mL in combination): 0.5 µg/mL
- MIC ([15]; Table 6, Pseudomonas aeruginosa PSE-1, LK-157 at constant 4 μg/mL in combination): 16 µg/mL
- MIC ([16]; Table 6, Pseudomonas aeruginosa LCR-1, LK-157 at constant 4 μg/mL in combination): 64 µg/mL
- MIC ([17]; Table 6, Proteus mirabilis TEM-52, LK-157 at constant 4 μg/mL in combination): 16 µg/mL
- MIC ([18]; Table 6, Escherichia coli TEM-20, LK-157 at constant 4 μg/mL in combination): 2 µg/mL
- MIC ([19]; Table 6, Klebsiella pneumoniae LAT-1, LK-157 at constant 4 μg/mL in combination): 4 µg/mL
- MIC ([20]; Table 6, Pseudomonas aeruginosa OXA-10, LK-157 at constant 4 μg/mL in combination): 64 µg/mL

Compound: CC(C)(O/N=C(\C(=O)N[C@@H]1C(=O)N2C(C(=O)[O-])=C(C[n+]3ccccc3)CS[C@H]12)c1csc(N)n1)C(=O)O [ceftazidime]
- MIC ([1]; Table 7, Escherichia coli TEM-1, combination at constant concentration ratio (2:1)): 0.25 µg/mL
- MIC [2]: 25.6 µg/mL
- MIC [3]: 1.6 µg/mL (≈ 2.93 µM)
- MIC ([4]; first listed): > 25.6 µg/mL
- MIC ([4]; second listed): > 25.6 µg/mL
- MIC ([4]; third listed): > 25.6 µg/mL
- MIC [5]: > 25.6 µg/mL
- MIC ([6]; Table 7, Escherichia coli TEM-35, combination at constant concentration ratio (2:1)): 0.25 µg/mL
- MIC ([7]; Table 7, Escherichia coli OXA-5, combination at constant concentration ratio (2:1)): 0.5 µg/mL
- MIC ([8]; Table 7, Escherichia coli TEM-50, combination at constant concentration ratio (2:1)): 8 µg/mL
- MIC ([9]; Table 7, Escherichia coli SHV-2, combination at constant concentration ratio (2:1)): 2 µg/mL
- MIC ([10]; Table 7, Klebsiella pneumoniae TEM-31, combination at constant concentration ratio (2:1)): 0.25 µg/mL
- MIC ([11]; Table 7, Escherichia coli TEM-7, combination at constant concentration ratio (2:1)): 32 µg/mL
- MIC ([12]; Table 7, combination at constant concentration ratio (2:1)): 8 µg/mL
- MIC ([13]; Table 7, Escherichia coli TEM-5, combination at constant concentration ratio (2:1)): 4 µg/mL
- MIC ([14]; Table 7, Escherichia coli TEM-6, combination at constant concentration ratio (2:1)): ≧128 μg/mL
- MIC ([15]; Table 7, Pseudomonas aeruginosa PSE-1, combination at constant concentration ratio (2:1)): 2 µg/mL
- MIC ([16]; Table 7, Pseudomonas aeruginosa LCR-1, combination at constant concentration ratio (2:1)): 4 µg/mL
- MIC ([17]; Table 7, Proteus mirabilis TEM-52, combination at constant concentration ratio (2:1)): 4 µg/mL
- MIC ([18]; Table 7, Escherichia coli TEM-20, combination at constant concentration ratio (2:1)): 2 µg/mL
- MIC ([19]; Table 7, Klebsiella pneumoniae LAT-1, combination at constant concentration ratio (2:1)): 8 µg/mL
- MIC ([20]; Table 7, Pseudomonas aeruginosa OXA-10, combination at constant concentration ratio (2:1)): 4 µg/mL

Compound: CO/N=C(\C(=O)N[C@@H]1C(=O)N2C(C(=O)[O-])=C(C[N+]3(C)CCCC3)CS[C@H]12)c1csc(N)n1 [cefepime]
- MIC ([1]; Escherichia coli TEM-1, functional group 2b, LK-157 in combination constant 4 μg/mL): 0.125 µg/mL
- MIC [2]: 0.8 µg/mL
- MIC [3]: ≦0.025
- MIC ([4]; first listed): 0.8 µg/mL
- MIC ([4]; second listed): 1.6 µg/mL
- MIC ([4]; third listed): 1.6 µg/mL
- MIC [5]: 0.8 µg/mL
- MIC ([6]; Escherichia coli TEM-35, functional group 2br, LK-157 in combination constant 4 μg/mL): 0.125 µg/mL
- MIC ([7]; Escherichia coli OXA-5, functional group 2d, LK-157 in combination constant 4 μg/mL): 0.125 µg/mL
- MIC ([8]; Escherichia coli TEM-50, functional group 2be, LK-157 in combination constant 4 μg/mL): 32 µg/mL
- MIC ([9]; Escherichia coli SHV-2, functional group 2be, LK-157 in combination constant 4 μg/mL): 2 µg/mL
- MIC ([10]; Klebsiella pneumoniae TEM-31, functional group 2br, LK-157 in combination constant 4 μg/mL): 0.125 µg/mL
- MIC ([11]; Escherichia coli TEM-7, functional group 2be, LK-157 in combination constant 4 μg/mL): 16 µg/mL
- MIC ([12]; functional group 2b, unknown, LK-157 in combination constant 4 μg/mL): 4 µg/mL
- MIC ([13]; Escherichia coli TEM-5, functional group 2be, LK-157 in combination constant 4 μg/mL): 0.5 µg/mL
- MIC ([14]; Escherichia coli TEM-6, functional group 2be, LK-157 in combination constant 4 μg/mL): 4 µg/mL
- MIC ([15]; Pseudomonas aeruginosa PSE-1, functional group 2c, LK-157 in combination constant 4 μg/mL): 32 µg/mL
- MIC ([16]; Pseudomonas aeruginosa LCR-1, functional group 2d, LK-157 in combination constant 4 μg/mL): 128 µg/mL
- MIC ([17]; Proteus mirabilis TEM-52, functional group 2be, LK-157 in combination constant 4 μg/mL): 16 µg/mL
- MIC ([18]; Escherichia coli TEM-20, functional group 2be, LK-157 in combination constant 4 μg/mL): 4 µg/mL
- MIC ([19]; Klebsiella pneumoniae LAT-1, functional group 1, LK-157 in combination constant 4 μg/mL): 0.125 µg/mL
- MIC ([20]; Pseudomonas aeruginosa OXA-10, functional group 2d, LK-157 in combination constant 4 μg/mL): 64 µg/mL
